Consider ten compounds from patent US20260035359A1, “HERBICIDAL IMIDAZOLE COMPOUNDS” (SYNGENTA CROP PROTECTION AG, priority 2022, published 2026).

Common to all, as to format: in vivo
Assay [1] deals with Amaranthus retoflexus (AMARE). Description: Pre-emergence herbicidal glasshouse test. To be noted: 250 g/ha, sprayed after one day cultivation, evaluated after 13 days. The gist of the method:
(§1)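 Damage scores on a 1–5 scale (5=81-100%; 4=61-80%; 3=41-60%; 2=21-40%; 1=0-20%) reflect percentage plant damage assessed 13 days after spraying 250 g/ha, unless otherwise stated, in acetone/water (50:50) containing 0.5% Tween 20. Pre-emergence plants were treated after one day and post-emergence plants after 8 days of cultivation.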

In assay [2] the test system is Ipomoea hederacea (IPOHE). Description: Pre-emergence herbicidal glasshouse test. To be noted: 250 g/ha, sprayed after one day cultivation, evaluated after 13 days. Put shortly: as §1
The subject of assay [3] is Setaria faberi (SETFA). Description: Pre-emergence herbicidal glasshouse test. To be noted: 250 g/ha, sprayed after one day cultivation, evaluated after 13 days. The gist of the method: as §1
The test system of assay [4] is Amaranthus pa/meri (AMAPA). Description: Pre-emergence herbicidal glasshouse test. To be noted: 250 g/ha, sprayed after one day cultivation, evaluated after 13 days. Put shortly: as §1
For assay [5], the system named is Echinochloa crus-gali (ECHCG). Kind of assay: Pre-emergence herbicidal glasshouse test. The following applies: 250 g/ha, sprayed after one day cultivation, evaluated after 13 days. Put shortly:
as §1

The test system of assay [6] is Amaranthus retoflexus (AMARE). Description: Post-emergence herbicidal glasshouse test. To be noted: 250 g/ha, sprayed after 8 days cultivation, evaluated after 13 days. Put shortly: as §1
Assay [7] has as its system Ipomoea hederacea (IPOHE). Kind of assay: Post-emergence herbicidal glasshouse test. To be noted: 250 g/ha, sprayed after 8 days cultivation, evaluated after 13 days. The gist of the method:
as §1

In assay [8] the test system is Setaria faberi (SETFA). Kind of assay: Post-emergence herbicidal glasshouse test. The following applies: 250 g/ha, sprayed after 8 days cultivation, evaluated after 13 days. Put shortly:
as §1

Assay [9] relates to Amaranthus pa/meri (AMAPA). Kind of assay: Post-emergence herbicidal glasshouse test. To be noted: 250 g/ha, sprayed after 8 days cultivation, evaluated after 13 days. The gist of the method: as §1
For assay [10], the system named is Echinochloa crus-gali (ECHCG). Kind of assay: Post-emergence herbicidal glasshouse test. To be noted: 250 g/ha, sprayed after 8 days cultivation, evaluated after 13 days. Put shortly:
as §1

In the case of `OCC(O)CCc1nc(C(F)(F)F)cn1Cc1ncc(Cl)cn1` (stereo not shown) [Compound 1.011, 4-[1-[(5-chloropyrimidin-2-yl)methyl]-4-(trifluoromethyl)imidazol-2-yl]butane-1,2-diol], the results for the “percentage damage caused to the plant, AMARE” value in assay [1] and in assay [6] were 1 (1=0-20%) and 2 (2=21-40%), respectively. The “percentage damage caused to the plant, IPOHE” value in assay [2] is reported as 1 (1=0-20%); in assay [7], 3 (3=41-60%). Further, the “percentage damage caused to the plant, SETFA” value in assay [3] and in [8] was 1 (1=0-20%) throughout. Further, the entries for the “percentage damage caused to the plant, AMAPA” value in assay [4] and in assay [9] were 1 (1=0-20%) and 2 (2=21-40%), respectively. In addition, the “percentage damage caused to the plant, ECHCG” value in assay [5] and in assay [10] was 1 (1=0-20%) in each case.

For the compound `CCCCc1nc(C(F)F)cn1Cc1ncc(Cl)cc1F` [Compound 1.054, 2-[[2-butyl-4-(difluoromethyl)imidazol-1-yl]methyl]-5-chloro-3-fluoro-pyridine], the “percentage damage caused to the plant, AMARE” value in assay [1] and in assay [6] was 3 (3=41-60%) in each case. The “percentage damage caused to the plant, IPOHE” value is given as 1 (1=0-20%) in assay [2] and 2 (2=21-40%) in assay [7]. Moreover, the “percentage damage caused to the plant, SETFA” value in [3] and in assay [8] was 1 (1=0-20%) each time. The “percentage damage caused to the plant, AMAPA” value in assay [4] was 4 (4=61-80%); in assay [9], 2 (2=21-40%). For the same compound, the “percentage damage caused to the plant, ECHCG” value in [5] and in assay [10] was 1 (1=0-20%) throughout.

For the compound `CC(=O)CCc1nc(C(F)(F)F)cn1Cc1ncc(Cl)cn1` [Compound 1.027], the “percentage damage caused to the plant, AMARE” value in assay [1] is 4 (4=61-80%); in [6] it was 2 (2=21-40%). The “percentage damage caused to the plant, IPOHE” value in assay [2] is 1 (1=0-20%); in assay [7], 2 (2=21-40%). Also, the “percentage damage caused to the plant, SETFA” value in assay [3] and in assay [8] was 1 (1=0-20%) throughout. Moreover, the “percentage damage caused to the plant, AMAPA” value is on record as 1 (1=0-20%) in assay [4] and 2 (2=21-40%) in [9]. Further, the “percentage damage caused to the plant, ECHCG” value in [5] and in assay [10] was 1 (1=0-20%) throughout.

Consider `CC(C)(O)CCc1nc(C(F)(F)F)cn1Cc1ncc(Cl)cn1` [Compound 1.086], for which the “percentage damage caused to the plant, AMARE” value in [1] is listed as 1 (1=0-20%); in [6], 2 (2=21-40%). Besides, the “percentage damage caused to the plant, IPOHE” value in assay [2] and in assay [7] was 3 (3=41-60%) throughout. For the same compound, the “percentage damage caused to the plant, SETFA” value in [3] and in assay [8] was 1 (1=0-20%) in each case. In addition, the “percentage damage caused to the plant, AMAPA” value in [4] is 1 (1=0-20%); in assay [9] it was 2 (2=21-40%). In addition, the “percentage damage caused to the plant, ECHCG” value in assay [5] and in assay [10] was 1 (1=0-20%) throughout.

In the case of `CC(C)(C#N)CCc1nc(C(F)(F)F)cn1Cc1ncc(Cl)cn1` [Compound 1.062], the “percentage damage caused to the plant, AMARE” value in assay [1] is given as 5 (5=81-100%); in assay [6], 2 (2=21-40%). The “percentage damage caused to the plant, IPOHE” value is listed as 5 (5=81-100%) in assay [2] and 3 (3=41-60%) in [7]. The “percentage damage caused to the plant, SETFA” value is listed as 4 (4=61-80%) in [3] and 2 (2=21-40%) in [8]. Further, the “percentage damage caused to the plant, AMAPA” value in [4] is recorded as 5 (5=81-100%); in assay [9], 2 (2=21-40%). Moreover, the “percentage damage caused to the plant, ECHCG” value in [5] was 4 (4=61-80%); in [10], 1 (1=0-20%).

As to `FC(F)(F)CCCc1nc(C(F)(F)F)cn1Cc1ncc(Cl)cn1` [Compound 1.025], the “percentage damage caused to the plant, AMARE” value in [1] and in assay [6] was 5 (5=81-100%) throughout. Further, the figures for the “percentage damage caused to the plant, IPOHE” value in assay [2] and in [7] were 5 (5=81-100%) and 4 (4=61-80%), respectively. Besides, the “percentage damage caused to the plant, SETFA” value in assay [3] and in assay [8] was 5 (5=81-100%) each time. The “percentage damage caused to the plant, AMAPA” value in assay [4] and in assay [9] was 5 (5=81-100%) throughout. Besides, the “percentage damage caused to the plant, ECHCG” value in assay [5] and in assay [10] was 5 (5=81-100%) in each case.

`FC(F)(F)c1cn(Cc2ncc(Cl)cn2)c(CCn2ccc(C(F)(F)F)n2)n1` [Compound 1.033]: the “percentage damage caused to the plant, AMARE” value in assay [1] is 5 (5=81-100%); in assay [6] it was 4 (4=61-80%). For the same compound, the “percentage damage caused to the plant, IPOHE” value in [2] is 5 (5=81-100%); in assay [7], 4 (4=61-80%). For the same compound, the “percentage damage caused to the plant, SETFA” value is 4 (4=61-80%) in [3] and 3 (3=41-60%) in assay [8]. Moreover, the entries for the “percentage damage caused to the plant, AMAPA” value in assay [4] and in assay [9] were 5 (5=81-100%) and 3 (3=41-60%), respectively. Further, the “percentage damage caused to the plant, ECHCG” value in assay [5] and in assay [10] was 3 (3=41-60%) throughout.

Regarding `C#Cc1nc(C(F)(F)F)cn1Cc1ncc(Cl)cn1` [Compound 1.084], the “percentage damage caused to the plant, AMARE” value in [1] and in assay [6] was 2 (2=21-40%) in each case. For the same compound, the “percentage damage caused to the plant, IPOHE” value in [2] and in assay [7] was 1 (1=0-20%) throughout. In addition, the “percentage damage caused to the plant, SETFA” value in assay [3] and in [8] was 1 (1=0-20%) throughout. In addition, the “percentage damage caused to the plant, AMAPA” value in assay [4] was 1 (1=0-20%); in assay [9] it was 2 (2=21-40%). Also, the “percentage damage caused to the plant, ECHCG” value in assay [5] and in assay [10] was 1 (1=0-20%) in each case.

In the case of `OCCCc1nc(C(F)(F)F)cn1Cc1ncc(Cl)cn1` [Compound 1.008, 3-[1-[(5-chloropyrimidin-2-yl)methyl]-4-(trifluoromethyl)imidazol-2-yl]propan-1-ol], the “percentage damage caused to the plant, AMARE” value in [1] and in [6] was 1 (1=0-20%) throughout. Moreover, the “percentage damage caused to the plant, IPOHE” value in assay [2] and in assay [7] was 1 (1=0-20%) each time. Further, the “percentage damage caused to the plant, SETFA” value in [3] and in [8] was 1 (1=0-20%) throughout. Also, the “percentage damage caused to the plant, AMAPA” value in assay [4] and in [9] was 1 (1=0-20%) each time. Besides, the “percentage damage caused to the plant, ECHCG” value is 2 (2=21-40%) in assay [5] and 1 (1=0-20%) in assay [10].

Take `FC(F)(F)CCCc1nc(Br)cn1Cc1ncc(Cl)cn1` [Compound 1.003, 2-[[4-bromo-2-(4,4,4-trifluorobutyl)imidazol-1-yl]methyl]-5-chloro-pyrimidine]: the results for the “percentage damage caused to the plant, AMARE” value in [1] and in assay [6] were 1 (1=0-20%) and 2 (2=21-40%), respectively. Moreover, the “percentage damage caused to the plant, IPOHE” value in assay [2] and in [7] was 2 (2=21-40%) each time. In addition, the “percentage damage caused to the plant, SETFA” value in [3] and in assay [8] was 1 (1=0-20%) throughout. In addition, the “percentage damage caused to the plant, AMAPA” value in [4] is reported as 1 (1=0-20%); in assay [9] it was 2 (2=21-40%). Also, the “percentage damage caused to the plant, ECHCG” value in assay [5] and in [10] was 1 (1=0-20%) throughout.
